Experimental data from ChEMBL document CHEMBL5096243, “Selective TASK-1 Inhibitor with a Defined Structure-Activity Relationship Reduces Cancer Cell Proliferation and Viability” (J Med Chem, 2022).
Calls of active or inactive are those of the source. The rule behind the calls is not given here.

What was measured:
[1] = target: T1, Potassium channel subfamily K member 3 (Homo sapiens, UniProt O14649); experiment: Inhibition of human TASK-1 expressed in Xenopus laevis oocytes assessed as inhibition of channel current at 10 uM at +40mV holding potential by two-electrode voltage clamp assay; assay type: cell-based; details: Oocyte
Target sequence in this assay (O14649 whole entry, looked up): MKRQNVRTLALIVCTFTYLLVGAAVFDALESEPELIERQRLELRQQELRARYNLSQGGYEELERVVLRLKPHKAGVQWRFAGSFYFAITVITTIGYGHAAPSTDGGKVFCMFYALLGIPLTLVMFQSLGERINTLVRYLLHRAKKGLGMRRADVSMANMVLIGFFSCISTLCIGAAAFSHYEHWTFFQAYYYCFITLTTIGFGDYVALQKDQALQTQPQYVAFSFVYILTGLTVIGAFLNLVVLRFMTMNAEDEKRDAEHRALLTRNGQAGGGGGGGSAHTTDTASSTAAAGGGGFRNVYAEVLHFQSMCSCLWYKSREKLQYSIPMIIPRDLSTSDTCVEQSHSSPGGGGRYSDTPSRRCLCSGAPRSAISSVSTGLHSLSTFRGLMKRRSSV

[2] = target: T2, Potassium channel subfamily K member 9 (Homo sapiens, UniProt Q9NPC2); experiment: Inhibition of human TASK-3 expressed in Xenopus laevis oocytes assessed as inhibition of channel current at 10 uM at +40mV holding potential by two-electrode voltage clamp assay; assay type: cell-based; details: Oocyte
[3] = target: T1, Potassium channel subfamily K member 3; experiment: Inhibition of human TASK-1 expressed in Xenopus laevis oocytes assessed as inhibition of channel current at +40mV holding potential by two-electrode voltage clamp assay; assay type: cell-based, Oocyte
Target sequence in this assay (O14649 whole entry): as the sequence (O14649 whole entry, looked up) above

[4] = target: T2, Potassium channel subfamily K member 9; experiment: Inhibition of human TASK-3 expressed in Xenopus laevis oocytes assessed as inhibition of channel current at +40mV holding potential by two-electrode voltage clamp assay; assay type: cell-based, Oocyte
[5] = system: MCF7; experiment: Antiproliferative activity against human MCF7 cells assessed as inhibition of cell proliferation at 10 uM incubated for 4 days by MTT assay; assay type: functional; design: scale not given: the % may be the effect or the level left; details: time 4 day
[6] = system: MCF7; experiment: Antiproliferative activity against human MCF7 cells with wild type TASK-1 expressing GFP induced by shGFP assessed as inhibition of cell proliferation at 0.148 uM incubated for 24 to 72 hrs by trypan blue exclusion method; assay type: functional, cell-based; details: time 24-72 hrs
[7] = system: MCF7; experiment: Antiproliferative activity against human MCF7 cells with shBP3 induced TASK-1 knockdown assessed as inhibition of cell proliferation at 0.148 uM incubated for 24 to 72 hrs by trypan blue exclusion method; assay type: functional, cell-based; details: time 24-72 hrs
[8] = system: MCF7; experiment: Antiproliferative activity against human MCF7 cells with shBP9 induced TASK-3 knockdown assessed as inhibition of cell proliferation at 0.148 uM incubated for 48 to 72 hrs by trypan blue exclusion method; assay type: functional, cell-based; details: time 48-72 hrs

T2 sequence (Q9NPC2 whole entry): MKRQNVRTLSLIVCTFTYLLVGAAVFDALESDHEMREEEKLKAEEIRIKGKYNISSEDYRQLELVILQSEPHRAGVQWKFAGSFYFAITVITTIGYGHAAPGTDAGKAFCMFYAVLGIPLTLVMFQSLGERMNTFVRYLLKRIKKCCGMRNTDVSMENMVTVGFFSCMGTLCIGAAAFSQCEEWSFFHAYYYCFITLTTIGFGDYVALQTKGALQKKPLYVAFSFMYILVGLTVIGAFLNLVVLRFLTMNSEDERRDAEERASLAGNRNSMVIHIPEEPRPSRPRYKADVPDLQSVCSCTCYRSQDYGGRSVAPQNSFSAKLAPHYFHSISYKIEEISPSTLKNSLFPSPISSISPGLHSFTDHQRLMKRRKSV

| SMILES | inhibition [1] | inhibition [2] | IC50 [3] [nM] | further results |
| --- | --- | --- | --- | --- |
| O=C(Nc1cccc(C(=O)Nc2ncccc2O)c1)c1ccccc1 | Active | Active | – | – |
| O=C(Nc1cccc(C(=O)Nc2nccs2)c1)c1ccccc1 | Active | Active | 388 | IC50 [4]: 7170 nM |
| CCc1ccccc1NC(=O)c1cccc(NC(=O)c2ccccc2)c1 | Active | Active | 148 | IC50 [4]: 1750 nM; Activity [5]: 45%; Activity [6]: Active; Activity [7]: Active; Activity [8]: Active |
| O=C(NCc1ccccc1)c1cccc(NC(=O)c2ccccc2)c1 | Active | Active | – | – |
| O=C(Nc1cccc(C(=O)Nc2ccc(F)cc2)c1)c1ccccc1 | 25% | – | – | – |
| CCCS(=O)(=O)Nc1ccccc1C(=O)N[C@H](CC)c1ccc(OC)nc1 | – | – | 200 | – |

Now from value to molecule, other results behind:

| inhibition [1] | inhibition [2] | IC50 [3] [nM] | SMILES | further results |
| --- | --- | --- | --- | --- |
| – | – | 7600 | O=C(c1cccc(OC(F)(F)F)n1)N1CCN(Cc2c(-c3ccc(Cl)cc3)nc3ccccn23)CC1 | – |
| – | – | 9500 | O=C(c1ccccc1F)N1CCN(Cc2c(-c3ccc(Br)cc3)nc3ccccn23)CC1 | – |
| 10% | – | – | COc1ccc(NC(=O)c2cccc(NC(=O)c3ccccc3)c2)cc1 | – |
